Assay results as given in patent US20260207798A1, “CYCLIC PEPTIDES AS PET IMAGING AGENTS OF GRANZYME B” (priority 2022, published 2026).
Numbered stars: 1 amine (or outer) side, 2 acyl side, 3 side chain; on linkers, the order of the positions; unused ones are H or OH. Bridge positions count the residues as written; N and C are the ends. Square brackets hold non-standard residues; d marks the D form. Peptide text beside a SMILES is read from it. I, II: the chains in the order shown. * marks the point of attachment. X4 = O=C(O)CN1CCN(CC(=O)O)CC(Cc2ccc(NC(=S)NCCC(=O)N(CCOCCOCCOCCOCCC(=O)[*:1])CCOCCOCCOCCOCCC(=O)[*:2])cc2)N(CC(=O)O)CC1; CO(CH2)2(OCH2CH2)17CO = O=C(CCOCCOCCOCCOCCOCCOCCOCCOCCOCCOCCOCCOCCOCCOCCOCCOCCOCCC(=O)[*:2])[*:1]; X5 = O=C(CCOCCOCCOCCOCCOCCOCCOCCOCCOCCOCCOCCC(=O)[*:2])[*:1]; Pro(trans-4-F) = O=C(O)[C@@H]1C[C@@H](F)CN1; Pro(cis-4-F) = O=C(O)[C@@H]1C[C@H](F)CN1; Aib = CC(C)(N)C(=O)O; Propionyl = CCC(=O)*

biological target: human Granzyme B (hGranzyme B) (Homo sapiens, UniProt P10144); experiment: Surface plasmon resonance (SPR) binding kinetics to hGranzyme B; conditions: not given
Description: The kinetics of test peptide binding to human Granzyme B (hGranzyme B) was determined by SPR. All experiments were performed at 25° C. using the Biacore 8k+ instrument (Cytiva, Marlborough, MA). The Biacore 8k+ Insight Evaluation Software Version 3.0 was used to fit the data with a 1:1 binding model to determine the association rate constant ka (M^−1s^−1, where “M” ~equals molar and “s” ~equals seconds) and the dissociation rate constant kd (s^−1). These rate constants were used to calculate the equilibrium dissociation constant. KD (M)=kd/ka.
To measure the binding kinetics of peptides of interest, surfaces were prepared by a capture method to a Series S Streptavidin (SA) chip using a 1×HBS-EP+ running buffer (Cytiva). hGranzyme B was diluted to 10 μg/mL in IX HBS-EP+ and flowed over spot 2 of each flow cell on the chip at a flow rate of 10 ul/min for 20 s to achieve a level of capture of ~1100 RU. An unmodified spot 1 of each flow cell was used as a matrix binding control or reference surface. Binding kinetics were measured using single cycle kinetics at 25° C. by injecting 5 concentrations with 3-fold serial dilutions of test peptides from 0.01 μM to 1 μM. Compound dilutions were performed manually in a running buffer containing 1×HBS-EP+(Cytiva), and a final concentration of 2% DMSO. The interaction analyses over hGranzyme B, were performed using a 120 s association time and a 900 s dissociation time. All experiments were conducted at a flow rate of 50 μL/min with a data collection rate of 10 Hz.
Peptide dilution series included 2 zero concentration points (no compound) which were averaged and subtracted from the peptide concentration injection as DMSO control responses. Binding data acquired from the reference surface (matrix binding control) were subtracted from the binding data for hGranzyme B surface on the chip to determine specific binding. Next, the association phase data were solvent corrected to account for any signal fluctuation throughout the experiment due to subtle DMSO concentration differences. Corrected response data were analyzed using the Biacore 8k+ Evaluation Software Version 3.0 according to the manufacturer. SPR data for representative compounds of the disclosure are found in Table 8.

SMILES | Kd [nM]
C[C@@H]1NC(=O)[C@H](CO)NC(=O)[C@H](CCC(N)=O)NC(=O)[C@H](CC(=O)O)NC(=O)[C@H](CCC(=O)O)NC(=O)[C@H](Cc2ccccc2)NC(=O)[C@H](CC(N)=O)NC(=O)[C@H](Cc2ccccc2)NC(=O)CSC[C@@H](C(=O)NCC(=O)NCC(=O)N[C@H](CCCCNC(=O)CCOCCOCCOCCOCCN(CCOCCOCCOCCOCCC(=O)NCCCC[C@@H](NC(=O)CNC(=O)CNC(=O)[C@@H]2CSCC(=O)N[C@@H](Cc3ccccc3)C(=O)N[C@@H](CC(N)=O)C(=O)N[C@@H](Cc3ccccc3)C(=O)N[C@@H](CCC(=O)O)C(=O)N[C@@H](CC(=O)O)C(=O)N[C@@H](CCC(N)=O)C(=O)N[C@@H](CO)C(=O)N[C@@H](C)C(=O)N[C@@H](CC(=O)O)C(=O)N[C@@H]([C@@H](C)O)C(=O)N[C@@H](Cc3c[nH]c4ccccc34)C(=O)N[C@@H](CCC(N)=O)C(=O)N3CCC[C@H]3C(=O)N2)C(N)=O)C(=O)CCNC(=S)Nc2ccc(CC3CN(CC(=O)O)CCN(CC(=O)O)CCN3CC(=O)O)cc2)C(N)=O)NC(=O)[C@@H]2CCCN2C(=O)[C@H](CCC(N)=O)NC(=O)[C@H](Cc2c[nH]c3ccccc23)NC(=O)[C@H]([C@@H](C)O)NC(=O)[C@H](CC(=O)O)NC1=O (stereo partly drawn) [Compound 8a, (*F.N.F.E.D.Q.S.A.D.T.W.Q.P.*C.G.G.K.NH2)-bis(PEG4)-β-Ala(NOTA-1)-(*F.N.F.E.D.Q.S.A.D.T.W.Q.P.*C.G.G.K.NH2)] (I: {CH2CO}-FNFEDQSADTWQPCGG[dK]-NH2 / II: {CH2CO}-FNFEDQSADTWQPCGG[dK]-NH2; linker I:17-II:17 via X4; thioether I:N-I:14, II:N-II:14) | < 0.1

same assay, conditions: 25° C., 1:1 binding model, KD=kd/ka; read-out: Granzyme B SPR Kd

SMILES | Kd [nM]
CCC(=O)NCCCC[C@H](NC(=O)CNC(=O)CNC(=O)[C@@H]1CSCC(=O)N[C@@H](Cc2ccccc2)C(=O)N[C@@H](CC(N)=O)C(=O)N[C@@H](Cc2ccccc2)C(=O)N[C@@H](CCC(=O)O)C(=O)N[C@@H](CC(=O)O)C(=O)N[C@@H](CCC(N)=O)C(=O)N[C@@H](CO)C(=O)N2C[C@H](F)C[C@H]2C(=O)N[C@@H](CC(=O)O)C(=O)N[C@@H]([C@@H](C)O)C(=O)N[C@@H](Cc2c[nH]c3ccccc23)C(=O)N[C@@H](CCC(N)=O)C(=O)N2CCC[C@H]2C(=O)N1)C(N)=O [Compound 14a, *F.N.F.E.D.Q.S.Prot4F.D.T.W.Q.P.*C.G.G.K(Prop).NH2] ({CH2CO}-FNFEDQS[Pro(trans-4-F)]DTWQPCGGK(Propionyl)-NH2; thioether N-14) | 5.1
CCC(=O)NCCCC[C@H](NC(=O)CNC(=O)CNC(=O)[C@@H]1CSCC(=O)N[C@@H](Cc2ccccc2)C(=O)N[C@@H](CC(N)=O)C(=O)N[C@@H](Cc2ccccc2)C(=O)N[C@@H](CCC(=O)O)C(=O)N[C@@H](CC(=O)O)C(=O)N[C@@H](CCC(N)=O)C(=O)N[C@@H](CO)C(=O)N2CCC[C@H]2C(=O)N[C@@H](CC(=O)O)C(=O)N[C@@H]([C@@H](C)O)C(=O)N[C@@H](Cc2c[nH]c3ccccc23)C(=O)N[C@@H](CCC(N)=O)C(=O)N2CCC[C@H]2C(=O)N1)C(N)=O [Compound 15a, *F.N.F.E.D.Q.S.P.D.T.W.Q.P.*C.G.G.K(Prop).NH2] ({CH2CO}-FNFEDQSPDTWQPCGGK(Propionyl)-NH2; thioether N-14) | 3.7
C[C@@H]1NC(=O)[C@H](CO)NC(=O)[C@H](CCC(N)=O)NC(=O)[C@H](CC(=O)O)NC(=O)[C@H](CCC(=O)O)NC(=O)[C@H](Cc2ccccc2)NC(=O)[C@H](CC(N)=O)NC(=O)[C@H](Cc2ccccc2)NC(=O)CSC[C@@H](C(=O)NCC(=O)NCC(=O)N[C@@H](CCCCNC(=O)CCOCCOCCOCCOCCOCCOCCOCCOCCOCCOCCOCCC(=O)NCCCC[C@H](NC(=O)CNC(=O)CNC(=O)[C@@H]2CSCC(=O)N[C@@H](Cc3ccccc3)C(=O)N[C@@H](CC(N)=O)C(=O)N[C@@H](Cc3ccccc3)C(=O)N[C@@H](CCC(=O)O)C(=O)N[C@@H](CC(=O)O)C(=O)N[C@@H](CCC(N)=O)C(=O)N[C@@H](CO)C(=O)N[C@@H](C)C(=O)N[C@@H](CC(=O)O)C(=O)N[C@@H]([C@@H](C)O)C(=O)N[C@@H](Cc3c[nH]c4ccccc34)C(=O)N[C@@H](CCC(N)=O)C(=O)N3CCC[C@H]3C(=O)N2)C(N)=O)C(N)=O)NC(=O)[C@@H]2CCCN2C(=O)[C@H](CCC(N)=O)NC(=O)[C@H](Cc2c[nH]c3ccccc23)NC(=O)[C@H]([C@@H](C)O)NC(=O)[C@H](CC(=O)O)NC1=O [Compound 17a, (*F.N.F.E.D.Q.S.A.D.T.W.Q.P.*C.G.G.K.NH2)-PEG11-(*F.N.F.E.D.Q.S.A.D.T.W.Q.P.*C.G.G.K.NH2)] (I: {CH2CO}-FNFEDQSADTWQPCGGK-NH2 / II: {CH2CO}-FNFEDQSADTWQPCGGK-NH2; linker I:17-II:17 via X5 (inferred); thioether I:N-I:14, II:N-II:14 (inferred)) | < 0.3
C[C@@H]1NC(=O)[C@H](CO)NC(=O)[C@H](CCC(N)=O)NC(=O)[C@H](CC(=O)O)NC(=O)[C@H](CCC(=O)O)NC(=O)[C@H](Cc2ccccc2)NC(=O)[C@H](CC(N)=O)NC(=O)[C@H](Cc2ccccc2)NC(=O)CSC[C@@H](C(=O)NCC(=O)NCC(=O)N[C@@H](CCCCNC(=O)CCOCCOCCOCCOCCOCCOCCOCCOCCOCCOCCOCCOCCOCCOCCOCCOCCOCCC(=O)NCCCC[C@H](NC(=O)CNC(=O)CNC(=O)[C@@H]2CSCC(=O)N[C@@H](Cc3ccccc3)C(=O)N[C@@H](CC(N)=O)C(=O)N[C@@H](Cc3ccccc3)C(=O)N[C@@H](CCC(=O)O)C(=O)N[C@@H](CC(=O)O)C(=O)N[C@@H](CCC(N)=O)C(=O)N[C@@H](CO)C(=O)N[C@@H](C)C(=O)N[C@@H](CC(=O)O)C(=O)N[C@@H]([C@@H](C)O)C(=O)N[C@@H](Cc3c[nH]c4ccccc34)C(=O)N[C@@H](CCC(N)=O)C(=O)N3CCC[C@H]3C(=O)N2)C(N)=O)C(N)=O)NC(=O)[C@@H]2CCCN2C(=O)[C@H](CCC(N)=O)NC(=O)[C@H](Cc2c[nH]c3ccccc23)NC(=O)[C@H]([C@@H](C)O)NC(=O)[C@H](CC(=O)O)NC1=O [Compound 18a, (*F.N.F.E.D.Q.S.A.D.T.W.Q.P.*C.G.G.K.NH2)-PEG17-(F.N.F.E.D.Q.S.A.D.T.W.Q.P.C.G.G.K.NH2)] (I: {CH2CO}-FNFEDQSADTWQPCGGK-NH2 / II: {CH2CO}-FNFEDQSADTWQPCGGK-NH2; linker I:17-II:17 via CO(CH2)2(OCH2CH2)17CO (inferred); thioether I:N-I:14, II:N-II:14 (inferred)) | < 0.3
C[C@@H](O)[C@@H]1NC(=O)CNC(=O)C(C)(C)NC(=O)[C@H](CO)NC(=O)[C@H](CCC(N)=O)NC(=O)[C@H](CC(=O)O)NC(=O)[C@H](CCC(=O)O)NC(=O)[C@H](Cc2ccccc2)NC(=O)[C@H](CC(N)=O)NC(=O)[C@H](Cc2ccccc2)NC(=O)CSC[C@@H](C(=O)NCC(N)=O)NC(=O)[C@@H]2CCCN2C(=O)[C@H](CCC(N)=O)NC(=O)[C@H](Cc2c[nH]c3ccccc23)NC1=O [Compound 45a, *F.N.F.E.D.Q.S.Aib.G.T.W.Q.P.*C.G.NH2] ({CH2CO}-FNFEDQS[Aib]GTWQPCG-NH2; thioether N-14) | 3.7
C[C@@H](O)[C@@H]1NC(=O)[C@H](CC(=O)O)NC(=O)[C@@H]2CCCN2C(=O)[C@H](CO)NC(=O)[C@H](CCC(N)=O)NC(=O)[C@H](CC(=O)O)NC(=O)[C@H](CCC(=O)O)NC(=O)[C@H](Cc2ccccc2)NC(=O)[C@H](CC(N)=O)NC(=O)[C@H](Cc2ccccc2)NC(=O)CSC[C@@H](C(=O)NCC(N)=O)NC(=O)[C@@H]2C[C@H](F)CN2C(=O)[C@H](CCC(N)=O)NC(=O)[C@H](Cc2c[nH]c3ccccc23)NC1=O [Compound 48a, *F.N.F.E.D.Q.S.P.D.T.W.Q.Proc4F.*C.G.NH2] ({CH2CO}-FNFEDQSPDTWQ[Pro(cis-4-F)]CG-NH2; thioether N-14) | 4.2
C[C@@H](O)[C@@H]1NC(=O)[C@H](CC(=O)O)NC(=O)[C@@H]2CCCN2C(=O)[C@H](CO)NC(=O)[C@H](CCC(N)=O)NC(=O)[C@H](CC(=O)O)NC(=O)[C@H](CCC(=O)O)NC(=O)[C@H](Cc2ccccc2)NC(=O)[C@H](CC(N)=O)NC(=O)[C@H](Cc2ccccc2)NC(=O)CSC[C@@H](C(=O)NCC(=O)NCC(=O)N[C@@H](CCCCN)C(N)=O)NC(=O)[C@@H]2CCCN2C(=O)[C@H](CCC(N)=O)NC(=O)[C@H](Cc2c[nH]c3ccccc23)NC1=O [Compound 51a, *F.N.F.E.D.Q.S.P.D.T.W.Q.P.*C.G.G.K.NH2] ({CH2CO}-FNFEDQSPDTWQPCGGK-NH2; thioether N-14) | 4.8
CC(C)C[C@@H]1NC(=O)[C@@H]2CCCN2C(=O)[C@H](CO)NC(=O)[C@H](CCC(N)=O)NC(=O)[C@H](CC(=O)O)NC(=O)[C@H](CCC(=O)O)NC(=O)[C@H](Cc2ccccc2)NC(=O)[C@H](CC(N)=O)NC(=O)[C@H](Cc2ccccc2)NC(=O)CSC[C@@H](C(=O)NCC(N)=O)NC(=O)[C@@H]2CCCN2C(=O)[C@H](CCC(N)=O)NC(=O)[C@H](Cc2c[nH]c3ccccc23)NC(=O)[C@H]([C@@H](C)O)NC1=O [Compound 52a, *F.N.F.E.D.Q.S.P.L.T.W.Q.P.*C.G.NH2] ({CH2CO}-FNFEDQSPLTWQPCG-NH2; thioether N-14) | 4.8
